Test results reported in patent US8013144B2, “hnRNP K expression-inhibiting compound and siRNA sequence thereof” (Chang Gung University, priority 2009, dated 2011).

System: NPC-TW02 and NPC-TW02/TP
Experiment: cytotoxicity assay with 5′-DFUR, apoptosis assay (annexin V)
Format: cell-based
Conditions: TP over-expression, 72 hours
Procedure: Refer to FIG. 1A and FIG. 1B. A cell line of nasopharyngeal cancer NPC-TW02/TP is established to stably express exogenous TP. First, the TP-expression carrier pcDNA3.1-PT is transfected to the cell line. Next, the cell line is screened and then cultivated in a culture solution having 500 μg/ml G418. Next is performed a cytotoxicity assay, wherein NPC-TW02 and NPC-TW02/TP are respectively processed with 5′-DFUR (a product of Sigma-Aldrich, St. Louis, Mo., USA). Next, the cell lines are further cultivated for 72 hours. Next, the cell membranes are everted to expose phosphatidylserine. Then, phosphatidylserine is analyzed with the Vybrant® Apoptosis Assay Kit #2 (a product of Invitrogen).
Firstly, 2×10^5 cells are taken out and washed with PBS. Next, a buffer solution (10 mM HEPES, 140 mM NaCl, 2.5 mM CaCl2, pH 7.4) is used to adjust the solution to have a cell concentration of 2×10^6/mL. Next, 5 μl Alexa Fluor® 488 annexin V is added into […], and then the cell suspension reacts at an ambient temperature for 15 minutes. Next, the cell specimens (10000 events) are analyzed with a flow cytometer (a product of Becton Dickinson), as shown in FIG. 3. […] Then, phosphatidylserine is analyzed with the Vybrant® Apoptosis Assay Kit #2 (a product of Invitrogen).

C[C@H]1O[C@@H](n2cc(F)c(=O)[nH]c2=O)[C@H](O)[C@@H]1O [5′-DFUR, 5-fluoro-5′-deoxyuridine]
sensitivity of nasopharyngeal cancer cells to 5′-DFUR (apoptosis): more sensitive
